Earlier results as cited in patent US10004754B2, “ANP fragment adjuvant therapy to standard of care (SOC) diuretic treatment” (MADELEINE PHARMACEUTICALS PTY LTD, priority 2014, dated 2018).

Tested on: ADCHF patients
Conditions: cited from earlier work

nesiritide: A recombinant form of human BNP, approved by the FDA for the treatment of ADCHF
diuresis in ADCHF patients (Gottlieb, 2013): does not increase diuresis
patient mortality or re-hospitalisation rate (O'Conner et al., 2011): not associated with a change
